The record followed here is PubChem BioAssay AID624167 (Sanford-Burnham Center for Chemical Genomics, 2012).

Assay [1] can be described thus: inhibition of PEG-3 promoter-driven reporter – cell-based, HeLa, luciferase, CREF/GAPDH counter-screen panel, dose response (AID 624167). Conditions: CREF/GAPDH counter-screens; GAPDH; mean of runs.
In a further assay the test system is GAPDH. Described as above. Conditions: CREF/GAPDH counter-screens.
Assay [2] has as its target PEG-3 (UniProt Q6IN02). Described as above. Particulars: HeLa PEG-Prom luciferase reporter, overnight, CREF/GAPDH counter-screens, mean of runs.
The test system of assay [3] is PEG-3. The assay is described as above. Particulars: HeLa PEG-Prom luciferase reporter, overnight, CREF/GAPDH counter-screens.
The test system of another assay is Rat fibroblasts (CREF). The description is as above. Particulars: CREF/GAPDH counter-screens.
Setting [4] is: run 1, dose range 1, individual replicate IC50 per panel.
The mark [5] stands for this setting: run 2, dose range 1, individual replicate IC50 per panel.

Activity calls are given as the source filed them.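 The calls were made as follows: active = mean IC50 for reducing PEG3 promoter reporter signal at or below a set limit, with IC50 above the limit in both counter screens; inactive = the rest, including counter screen hits.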

PEG-3 (UniProt Q6IN02), sequence (Q6IN02 whole entry, looked up): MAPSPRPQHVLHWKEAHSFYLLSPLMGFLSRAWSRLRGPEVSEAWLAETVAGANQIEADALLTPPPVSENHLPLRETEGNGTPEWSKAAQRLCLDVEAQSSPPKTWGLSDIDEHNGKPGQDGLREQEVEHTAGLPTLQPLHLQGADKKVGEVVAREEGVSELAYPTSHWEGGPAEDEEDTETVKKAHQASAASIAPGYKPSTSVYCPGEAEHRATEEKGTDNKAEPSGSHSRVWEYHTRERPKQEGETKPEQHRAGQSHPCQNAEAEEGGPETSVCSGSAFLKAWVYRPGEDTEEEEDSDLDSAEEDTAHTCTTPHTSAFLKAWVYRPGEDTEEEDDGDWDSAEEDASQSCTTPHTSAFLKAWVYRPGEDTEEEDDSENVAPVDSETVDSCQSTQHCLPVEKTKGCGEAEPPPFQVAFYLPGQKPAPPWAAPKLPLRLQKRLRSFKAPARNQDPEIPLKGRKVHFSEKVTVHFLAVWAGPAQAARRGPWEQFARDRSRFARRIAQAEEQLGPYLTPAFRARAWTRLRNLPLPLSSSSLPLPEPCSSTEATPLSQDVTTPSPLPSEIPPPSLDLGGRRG

With `O=C(/C=C/c1ccc(Cl)c([N+](=O)[O-])c1)c1ccc(O)cc1`, the IC50 was 16.6 µM in assay [1]; 17.9 µM with GAPDH (setting [4]); 15.3 µM in the assay on GAPDH (setting [5]); 6.34 µM on PEG-3 [2]; 8.19 µM with PEG-3 [3] (setting [4]); 4.5 µM with PEG-3 [3] (setting [5]). The IC50 is 26.5 µM in the assay with Rat fibroblasts (CREF) (mean of runs), 29.7 µM in the assay on Rat fibroblasts (CREF) (setting [4]) and 23.2 µM with Rat fibroblasts (CREF) (setting [5]).
Consider `CS(=O)(=O)Nc1cccc(NC(=O)C2Cc3c(-c4cccc(F)c4)ccnc3O2)c1` (stereo unspecified), for which, in assay [1], the IC50 result is “inactive”. The IC50 in the assay on GAPDH (setting [4]) was above 100 µM; in the assay on GAPDH (setting [5]) it was 44.6 µM; on PEG-3 [2], 2.87 µM; in the assay with PEG-3 [3] (setting [4]), 3.11 µM; in the assay on PEG-3 [3] (setting [5]) it was 2.62 µM; in the assay on Rat fibroblasts (CREF) (mean of runs) it was > 100 µM (inactive). Besides, the IC50 in the assay on Rat fibroblasts (CREF) (setting [4]) and in the assay on Rat fibroblasts (CREF) (setting [5]) was above 100 µM each time.
For `CC(=O)c1ccc(-c2cnc3c(NC=O)cc(-c4ccccc4Oc4ccccc4)cn23)cc1`, the IC50 result in assay [1] was “inactive”. Also, the half-maximal inhibitory concentration (IC50) in the assay with GAPDH (setting [4]) is 91.1 µM; in the assay with GAPDH (setting [5]) it was above 100 µM; at PEG-3 [2], 7.2 µM; with PEG-3 [3] (setting [4]), 5.46 µM; in the assay on PEG-3 [3] (setting [5]), 8.94 µM; in the assay on Rat fibroblasts (CREF) (mean of runs) it was 54.5 µM (inactive). For the same molecule, the half-maximal inhibitory concentration (IC50) in the assay on Rat fibroblasts (CREF) (setting [4]) was above 100 µM; in the assay on Rat fibroblasts (CREF) (setting [5]) it was 8.93 µM.
For `COc1cc2nc(CN3CC=C(c4ccccc4)CC3)[nH]c(=O)c2cc1OC`, in assay [1], the IC50 entry is “inactive”. For the same molecule, the IC50 was 60.9 µM with GAPDH (setting [4]); 62.2 µM in the assay with GAPDH (setting [5]); 6.47 µM at PEG-3 [2]; 7.71 µM with PEG-3 [3] (setting [4]); 5.22 µM with PEG-3 [3] (setting [5]); > 100 µM (inactive) with Rat fibroblasts (CREF) (mean of runs). Besides, the IC50 in the assay with Rat fibroblasts (CREF) (setting [4]) and in the assay with Rat fibroblasts (CREF) (setting [5]) was above 100 µM each time.
In the case of `CCCCCCCn1c(=N)n(CC(=O)c2ccco2)c2ccccc21`, the IC50 entry (in assay [1]; on PEG-3 [2]) was “inactive” throughout. Besides, the IC50 with GAPDH (setting [4]) is 27 µM; in the assay with GAPDH (setting [5]) it was 35 µM; in the assay with PEG-3 [3] (setting [4]) it was 0.395 µM; in the assay on PEG-3 [3] (setting [5]) it was above 100 µM; in the assay with Rat fibroblasts (CREF) (mean of runs) it was 30.7 µM; in the assay on Rat fibroblasts (CREF) (setting [4]), 29.2 µM. This molecule displayed an IC50 in the assay on Rat fibroblasts (CREF) (setting [5]) of 32.1 µM.
As to `C=CCn1c(C)cc(C(=O)COc2ccc(C)nc2[N+](=O)[O-])c1C`, the IC50 in assay [1] was 24 µM; with GAPDH (setting [4]), 8.8 µM; in the assay with GAPDH (setting [5]), 39.1 µM; on PEG-3 [2], 1.4 µM; in the assay on PEG-3 [3] (setting [4]), 1.55 µM; with PEG-3 [3] (setting [5]), 1.26 µM. For the same molecule, the IC50 with Rat fibroblasts (CREF) (mean of runs) was > 100 µM (inactive); in the assay on Rat fibroblasts (CREF) (setting [4]) it was above 100 µM; in the assay on Rat fibroblasts (CREF) (setting [5]), above 100 µM.
Take `CCC(c1nnnn1-c1ccc2c(c1)OCCO2)N1CCC(n2c(=O)[nH]c3ccccc32)CC1` (stereo unspecified): the IC50 in assay [1] was 10.8 µM; in the assay with GAPDH (setting [4]), 9.08 µM; with GAPDH (setting [5]) it was 12.6 µM; on PEG-3 [2], 7.33 µM; with PEG-3 [3] (setting [4]), 4.46 µM; in the assay on PEG-3 [3] (setting [5]), 10.2 µM. In addition, the IC50 is > 100 µM (inactive) in the assay on Rat fibroblasts (CREF) (mean of runs), above 100 µM with Rat fibroblasts (CREF) (setting [4]) and above 100 µM in the assay on Rat fibroblasts (CREF) (setting [5]).
As to `CC1=CC2/C=C(\C)CCC(O)C(O)/C=C/C(=O)C23C(=O)NC(CC(C)C)C3C1C` (stereo unspecified), the IC50 was 7.88 µM in assay [1]; 9.17 µM in the assay with GAPDH (setting [4]); 6.59 µM with GAPDH (setting [5]); 4.78 µM on PEG-3 [2]; 5.76 µM in the assay with PEG-3 [3] (setting [4]); 3.79 µM with PEG-3 [3] (setting [5]). Further, the figures for the IC50 with Rat fibroblasts (CREF) (mean of runs), in the assay on Rat fibroblasts (CREF) (setting [4]) and in the assay on Rat fibroblasts (CREF) (setting [5]) were 14.3 µM, 20.1 µM and 8.55 µM, respectively.
On to `CCCCC(=O)NC(c1ccccc1OC)c1ccc2cccnc2c1O` (stereo unspecified), for which, in assay [1], the IC50 result is “inactive”. Further, the IC50 with GAPDH (setting [4]) was 36.5 µM; in the assay on GAPDH (setting [5]) it was above 100 µM; at PEG-3 [2], 10.6 µM; in the assay on PEG-3 [3] (setting [4]), 3.35 µM; with PEG-3 [3] (setting [5]), 17.8 µM; in the assay on Rat fibroblasts (CREF) (mean of runs), > 100 µM (inactive). For the same molecule, the half-maximal inhibitory concentration (IC50) with Rat fibroblasts (CREF) (setting [4]) and in the assay with Rat fibroblasts (CREF) (setting [5]) was above 100 µM each time.
